Source: ChEMBL document CHEMBL1141678 (Eur J Med Chem, 2008)

Columns and labels:
[1] = biological target: T1, Cytochrome P450 2C9 (Homo sapiens, UniProt P11712); assay: Inhibition of human recombinant CYP2C9 in presence of reduced glutathione; type: ADME; settings: recombinant enzyme
[2] = biological target: T1, Cytochrome P450 2C9; assay: Inhibition of human recombinant CYP2C9; type: ADME
[3] = biological target: T2, Cytochrome P450 2B6 (Homo sapiens, UniProt P20813); assay: Inhibition of human recombinant CYP2B6 in presence of reduced glutathione; type: ADME; settings: recombinant enzyme
T2 sequence (P20813 whole entry): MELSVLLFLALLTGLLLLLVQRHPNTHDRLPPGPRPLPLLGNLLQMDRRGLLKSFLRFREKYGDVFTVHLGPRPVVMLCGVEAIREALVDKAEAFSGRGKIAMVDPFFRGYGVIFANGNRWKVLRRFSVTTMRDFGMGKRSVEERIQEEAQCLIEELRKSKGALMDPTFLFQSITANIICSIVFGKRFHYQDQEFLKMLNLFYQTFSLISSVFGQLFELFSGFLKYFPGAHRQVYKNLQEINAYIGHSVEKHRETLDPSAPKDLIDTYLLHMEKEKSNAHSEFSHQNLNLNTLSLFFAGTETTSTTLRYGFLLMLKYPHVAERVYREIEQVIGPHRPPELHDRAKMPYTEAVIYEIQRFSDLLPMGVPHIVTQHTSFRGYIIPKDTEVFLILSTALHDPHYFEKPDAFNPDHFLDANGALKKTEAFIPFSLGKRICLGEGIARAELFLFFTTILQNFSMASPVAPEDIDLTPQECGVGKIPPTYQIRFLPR

[4] = biological target: T3, Cytochrome P450 1A2 (Homo sapiens, UniProt P05177); assay: Inhibition of human recombinant CYP1A2; settings: for log(1/IC50): human
T3 sequence (P05177 whole entry): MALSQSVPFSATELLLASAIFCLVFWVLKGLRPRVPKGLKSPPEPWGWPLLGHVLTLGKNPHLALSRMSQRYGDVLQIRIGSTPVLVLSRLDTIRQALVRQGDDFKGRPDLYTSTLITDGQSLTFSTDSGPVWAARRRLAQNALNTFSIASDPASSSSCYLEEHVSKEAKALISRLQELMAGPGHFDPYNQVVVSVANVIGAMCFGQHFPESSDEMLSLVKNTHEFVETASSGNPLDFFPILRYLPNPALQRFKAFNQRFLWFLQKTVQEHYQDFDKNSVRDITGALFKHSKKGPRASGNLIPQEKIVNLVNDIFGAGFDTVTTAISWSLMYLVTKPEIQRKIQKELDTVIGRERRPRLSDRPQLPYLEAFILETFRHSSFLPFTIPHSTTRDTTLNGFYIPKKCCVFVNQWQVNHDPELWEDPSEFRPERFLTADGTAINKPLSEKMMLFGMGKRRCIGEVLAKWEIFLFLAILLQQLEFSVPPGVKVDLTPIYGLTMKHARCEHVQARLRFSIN

[5] = biological target: T4, Cytochrome P450 3A4 (Homo sapiens, UniProt P08684); assay: Inhibition of human recombinant CYP3A4 in presence of reduced glutathione; type: ADME; settings: recombinant enzyme
T4 sequence (P08684 whole entry): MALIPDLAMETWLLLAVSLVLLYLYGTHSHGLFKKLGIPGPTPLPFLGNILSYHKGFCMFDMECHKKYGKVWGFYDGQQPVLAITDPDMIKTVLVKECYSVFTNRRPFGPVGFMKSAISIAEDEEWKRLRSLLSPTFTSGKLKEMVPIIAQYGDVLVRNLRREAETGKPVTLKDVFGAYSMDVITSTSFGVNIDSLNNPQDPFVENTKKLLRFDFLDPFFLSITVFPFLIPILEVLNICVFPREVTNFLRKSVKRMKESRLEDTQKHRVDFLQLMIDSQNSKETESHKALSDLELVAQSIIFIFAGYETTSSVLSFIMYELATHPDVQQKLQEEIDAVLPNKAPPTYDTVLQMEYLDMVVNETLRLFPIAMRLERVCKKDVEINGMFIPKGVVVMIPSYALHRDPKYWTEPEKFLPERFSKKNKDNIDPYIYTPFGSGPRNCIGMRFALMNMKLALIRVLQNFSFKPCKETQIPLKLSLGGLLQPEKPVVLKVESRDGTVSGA

[6] = biological target: T5, Cytochrome P450 2D6 (Homo sapiens, UniProt P10635); assay: Inhibition of human recombinant CYP2D6 in presence of reduced glutathione; type: ADME; settings: recombinant enzyme
T5 sequence (P10635 whole entry): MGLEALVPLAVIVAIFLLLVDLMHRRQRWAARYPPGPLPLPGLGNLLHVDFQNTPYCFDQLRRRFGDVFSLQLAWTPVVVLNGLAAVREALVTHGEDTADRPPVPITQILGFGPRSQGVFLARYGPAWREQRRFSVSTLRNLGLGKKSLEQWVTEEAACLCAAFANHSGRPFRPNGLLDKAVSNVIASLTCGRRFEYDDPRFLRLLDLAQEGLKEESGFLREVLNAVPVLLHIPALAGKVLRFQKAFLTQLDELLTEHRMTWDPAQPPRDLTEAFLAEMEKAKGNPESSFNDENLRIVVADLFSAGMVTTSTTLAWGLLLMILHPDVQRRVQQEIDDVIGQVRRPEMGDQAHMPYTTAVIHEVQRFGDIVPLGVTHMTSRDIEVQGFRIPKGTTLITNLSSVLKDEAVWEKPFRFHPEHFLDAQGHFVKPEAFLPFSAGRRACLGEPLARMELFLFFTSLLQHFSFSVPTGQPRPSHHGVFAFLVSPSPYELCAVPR

[7] = biological target: T4, Cytochrome P450 3A4; assay: Inhibition of human recombinant CYP3A4 at 100 uM; type: ADME; settings: recombinant enzyme
[8] = biological target: T5, Cytochrome P450 2D6; assay: Inhibition of human recombinant CYP2D6 at 100 uM; type: ADME; settings: recombinant enzyme
[9] = biological target: T2, Cytochrome P450 2B6; assay: Inhibition of human recombinant CYP2B6 at 100 uM; type: ADME; settings: recombinant enzyme
[10] = biological target: T5, Cytochrome P450 2D6; assay: Inhibition of human recombinant CYP2D6; type: ADME
[11] = biological target: T4, Cytochrome P450 3A4; assay: Inhibition of human recombinant CYP3A4; type: ADME

T1 sequence (P11712 whole entry): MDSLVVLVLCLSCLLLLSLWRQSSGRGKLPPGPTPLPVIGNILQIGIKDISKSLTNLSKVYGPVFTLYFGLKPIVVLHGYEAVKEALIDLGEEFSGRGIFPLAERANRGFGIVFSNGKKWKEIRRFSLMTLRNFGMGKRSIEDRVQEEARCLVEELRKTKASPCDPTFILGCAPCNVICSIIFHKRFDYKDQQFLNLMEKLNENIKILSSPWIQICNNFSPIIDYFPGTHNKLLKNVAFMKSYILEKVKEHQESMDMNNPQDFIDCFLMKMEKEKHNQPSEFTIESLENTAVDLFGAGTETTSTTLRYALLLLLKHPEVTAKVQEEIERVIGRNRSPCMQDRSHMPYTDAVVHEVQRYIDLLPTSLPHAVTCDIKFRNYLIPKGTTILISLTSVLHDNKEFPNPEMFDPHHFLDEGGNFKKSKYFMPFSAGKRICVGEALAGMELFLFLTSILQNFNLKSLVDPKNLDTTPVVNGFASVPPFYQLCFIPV

| SMILES | Activity [1] | IC50 [2] [µM] | Activity [3] | IC50 [4] [µM] | log(1/IC50) ([4]; recombinant CYP1A2) | Activity [5] | Activity [6] | Activity [7] | Activity [8] | Activity [9] | IC50 [10] [µM] | IC50 [11] [µM] | log(1/IC50) [4] |
| --- | --- | --- | --- | --- | --- | --- | --- | --- | --- | --- | --- | --- | --- |
| O=C(/C=C/c1cccc(Cl)c1)/C=C/c1cccc(Cl)c1 | Not Active | 21.3 | Not Active | 3.4 | 2.469 | Not Active | Not Active |  |  |  |  |  |  |
| CN(C)c1ccc(/C=C2\CC/C(=C\c3ccc(N(C)C)cc3)C2=O)cc1 | Not Active |  | Not Active |  |  | Not Active | Not Active |  |  |  |  |  |  |
| O=C1/C(=C/c2ccc(O)cc2)CCC/C1=C\c1ccc(O)cc1 | Not Active | 1 | Not Active |  |  | Not Active | Not Active | Not Active | Not Active | Not Active |  |  |  |
| COc1ccc(/C=C2\CCC/C(=C\c3ccc(OC)cc3)C2=O)cc1 | Not Active |  | Not Active | 11 | 1.959 | Not Active | Not Active | Not Active | Not Active | Not Active |  |  |  |
| O=C(/C=C/c1ccccc1)/C=C/c1ccccc1 | Not Active | 67.3 | Not Active |  |  | Not Active | Not Active |  |  |  | 68.5 |  |  |
| CCc1cc(/C=C2\CC/C(=C\c3cc(CC)c(O)c(CC)c3)C2=O)cc(CC)c1O | Not Active | 37.7 | Not Active | 36.7 |  | Not Active | Not Active |  |  |  |  | 73.5 | 1.435 |
| COc1cc(/C=C/C(=O)/C=C/c2ccc(O)c(OC)c2)ccc1O | Not Active |  | Not Active | 41.5 |  | Not Active | Not Active |  |  |  | 0.6 |  | 1.382 |
| O=C1/C(=C/c2ccc(Cl)c(Cl)c2)CC/C1=C\c1ccc(Cl)c(Cl)c1 | Not Active |  | Not Active |  |  | Not Active | Not Active |  |  |  |  |  |  |
| O=C1/C(=C/c2ccc(C(F)(F)F)cc2)CC/C1=C\c1ccc(C(F)(F)F)cc1 | Not Active |  | Not Active |  |  | Not Active | Not Active |  |  |  |  |  |  |
| Cc1cc(/C=C2\CCC/C(=C\c3cc(C)c(O)c(C)c3)C2=O)cc(C)c1O | Not Active |  | Not Active |  |  | Not Active | Not Active | Not Active | Not Active | Not Active |  |  |  |
| O=C1/C(=C/c2ccc(C(F)(F)F)cc2)CCC/C1=C\c1ccc(C(F)(F)F)cc1 | Not Active |  | Not Active | 10.4 | 1.983 | Not Active | Not Active | Not Active | Not Active | Not Active |  |  |  |
| O=C(/C=C/c1ccc(Cl)cc1)/C=C/c1ccc(Cl)cc1 | Not Active |  | Not Active | 26.6 | 1.575 | Not Active | Not Active |  |  |  |  |  |  |
| O=C(/C=C/c1ccc(C(F)(F)F)cc1)/C=C/c1ccc(C(F)(F)F)cc1 | Not Active |  | Not Active | 4 | 2.398 | Not Active | Not Active |  |  |  |  |  |  |
| O=C1/C(=C/c2cccc(Cl)c2)CC/C1=C\c1cccc(Cl)c1 | Not Active |  | Not Active |  |  | Not Active | Not Active |  |  |  |  |  |  |
| CN(C)c1ccc(/C=C2\CCC/C(=C\c3ccc(N(C)C)cc3)C2=O)cc1 | Not Active |  | Not Active | 2.6 | 2.585 | Not Active | Not Active | Not Active | Not Active | Not Active |  |  |  |
